What was measured:
Test in all cases: Cell proliferation assay (cell panel, MTS)
Type in all cases: cell-based
Melma-3M = conditions: Homo sapiens, 72 h, Melanoma, BRAF V600E, RAS WT, 3 days
Protocol: (§1) The proliferation assays against a cell panel were performed as described in ref.[18] Briefly, the cells were treated with DMSO or multiple concentrations of AZ304 for 3 days. The cell growth was determined using the CellTiter 96 Aqueous One Cell Proliferation Assay (Promega, Madison, WI). […] The assays were done in triplicate across different plates.
(§2) Anti-proliferative activity of AZ304 against a panel of cell lines with different BRAF and RAS genetic status. […] Cell growth was determined by MTS assay.

A549 = conditions: Homo sapiens, 72 h; A549, Lung, BRAF WT, KRAS MT, 3 days
Protocol: as §1, §2

SK-MEL-28 = conditions: Homo sapiens, 72 h; SK-MEL-28, Melanoma, BRAF V600E, RAS WT, 3 days
Protocol: as §1, §2

PC-3 = conditions: Homo sapiens, 72 h; PC-3, Prostate, BRAF WT, RAS WT, 3 days
Protocol: as §1, §2

SK-OV3 = conditions: Homo sapiens, SK-OV-3, 72 h; SK-OV3, Ovary, BRAF WT, RAS WT, 3 days
Protocol: as §1, §2

U937 = conditions: Homo sapiens, U-937, 72 h; U937, Lymphoma, BRAF WT, RAS WT, 3 days
Protocol: as §1, §2

SK-MEL-31 = conditions: Homo sapiens, 72 h; SK-MEL-31, Melanoma, BRAF WT, RAS WT, 3 days
Protocol: as §1, §2

RPMI-8226 = conditions: Homo sapiens, RPMI-8226, 72 h; BRAF WT, KRAS MT, 3 days
Protocol: as §1, §2

L-363 = conditions: Homo sapiens, 72 h; L-363, Leukemia, BRAF WT, NRAS MT, 3 days
Protocol: as §1, §2

A375 = conditions: Homo sapiens, A-375, 72 h; A375, Melanoma, BRAF V600E HM, RAS WT, 3 days
Protocol: as §1, §2

A375pgp = conditions: Homo sapiens, 72 h, Melanoma, BRAF V600E HM, RAS WT, 3 days
Protocol: as §1, §2

MC-F7 = conditions: Homo sapiens, MCF7, 72 h; MC-F7, Breast, BRAF WT, RAS WT, 3 days
Protocol: as §1, §2

NCI-H23 = conditions: Homo sapiens, 72 h; NCI-H23, Lung, BRAF WT, KRAS MT, 3 days
Protocol: as §1, §2

NCI-H1755 = conditions: Homo sapiens, 72 h; NCI-H1755, Lung, BRAF A468, RAS WT, 3 days
Protocol: as §1, §2

HCT-15 = conditions: Homo sapiens, 72 h; HCT-15, Colon, BRAF WT, KRAS MT, 3 days
Protocol: as §1, §2

NCI-H460 = conditions: Homo sapiens, 72 h; NCI-H460, Lung, BRAF WT, KRAS MT, 3 days
Protocol: as §1, §2

JVM-3 = conditions: Homo sapiens, 72 h; JVM-3, Lymphoma, BRAF K601N, RAS WT, 3 days
Protocol: as §1, §2

Calu-6 = conditions: Homo sapiens, 72 h; Calu-6, Lung, BRAF WT, KRAS MT, 3 days
Protocol: as §1, §2

IM-9 = conditions: Homo sapiens, 72 h; IM-9, Lymphoma, BRAF WT, NRAS MT, 3 days
Protocol: as §1, §2

HT29 = conditions: Homo sapiens, HT-29, 72 h; HT29, Colon, BRAF V600E HT, RAS WT, 3 days
Protocol: as §1, §2

MDA-MB-231 = conditions: Homo sapiens, 72 h; MDA-MB-231, Breast, BRAF G464V HT, KRAS MT, 3 days
Protocol: as §1, §2

PANC-1 = conditions: Homo sapiens, 72 h; PANC-1, Pancreas, BRAF WT, KRAS MT, 3 days
Protocol: as §1, §2

A2058 = conditions: Homo sapiens, 72 h; A2058, Melanoma, BRAF V600E HT, RAS WT, 3 days
Protocol: as §1, §2

MDA-MB-468 = conditions: Homo sapiens, 72 h; MDA-MB-468, Breast, BRAF WT, RAS WT, 3 days
Protocol: as §1, §2

SK-MEL-3 = conditions: Homo sapiens, SK-MEL3, 72 h; SK-MEL-3, Melanoma, BRAF V600E, RAS WT, 3 days
Protocol: as §1, §2

SK-MEL-24 = conditions: Homo sapiens, 72 h; SK-MEL-24, Melanoma, BRAF V600E, RAS WT, 3 days
Protocol: as §1, §2

SK-MEL-2 = conditions: Homo sapiens, 72 h; SK-MEL-2, Melanoma, BRAF WT, NRAS MT, 3 days
Protocol: as §1, §2

COLO205 = conditions: Homo sapiens, COLO 205, 72 h; COLO205, Colon, BRAF V600E HT, RAS WT, 3 days
Protocol: as §1, §2

Work on `COc1ccc2c(Nc3cc(NC(=O)c4cccc(C(C)(C)C#N)c4)ccc3C)ncnc2c1` [AZ304] yielded a GI50 (Melma-3M) of 0.1 µM, a GI50 (A549) of 16.7 µM and a GI50 (SK-MEL-28) of 0.5 µM. The GI50 (PC-3) was 6.68 µM, the GI50 (SK-OV3) was 6.18 µM and the GI50 (U937) was 9.37 µM. For the same molecule, the GI50 (SK-MEL-31) was 0.43 µM, the GI50 (RPMI-8226) was 5.37 µM and the GI50 (L-363) was 7.02 µM. The GI50 (A375) was 0.23 µM, the GI50 (A375pgp) was 0.43 µM and the GI50 (MC-F7) was 10.1 µM. For the same molecule, the GI50 (NCI-H23) was 3.99 µM, the GI50 (NCI-H1755) was 7.72 µM and the GI50 (HCT-15) was 11.5 µM. It also gave a GI50 (NCI-H460) of 8.56 µM, a GI50 (JVM-3) of 1.68 µM and a GI50 (Calu-6) of 5.51 µM. The GI50 (IM-9) was 0.9 µM, the GI50 (HT29) was 0.51 µM and the GI50 (MDA-MB-231) was 1.99 µM. It also gave a GI50 (PANC-1) of 5.45 µM, a GI50 (A2058) of 3.82 µM and a GI50 (MDA-MB-468) of 8.83 µM. For the same molecule, the GI50 (SK-MEL-3) was 0.53 µM, the GI50 (SK-MEL-24) was 0.08 µM and the GI50 (SK-MEL-2) was 3.91 µM. For the same molecule, the GI50 (COLO205) was 0.28 µM.

Source: publication PMC5988692, “AZ304, a novel dual BRAF inhibitor, exerts anti-tumour effects in colorectal cancer independently of BRAF genetic status” (British Journal of Cancer, 2018)
